Entries after “also recorded” stand apart in the source; their conditions may differ. Values belong to the compound of their own block, whether it stands above or below them. {ppp} = triphosphate
Experiments:
Type in all cases: cell-based, Mouse (C57BL/6)
[1] = tested on: neonatal cardiac fibroblasts; assay: qPCR of cardiomyocyte-lineage commitment factors (initiation phase of cardiac reprogramming); settings: TLR3 agonist Poly(I:C) LMW for 3 days after transfection, FIGS. 2Bi-2Biv
Method: (§1) Mouse (C57BL/6) neonatal cardiac fibroblasts were isolated from 2 day old mouse neonates according to the method outlined in Jayawardena et al. Following isolation fibroblasts were cultured in growth media containing DMEM (ATCC, Catalogue number 30-2002) supplemented with 15% v/v FBS (Thermo Scientific Hyclone Fetal bovine serum, Catalogue number SH30071.03, Lot number AXK49952) and 1% v/v penicillin/streptomycin (Gibco, Catalogue number 15140-122, 100 units Penicillin, 100 ug/ml Streptomycin). Fibroblasts were passaged once the cells had reached 70-80% confluence using 0.05% w/v trypsin (Gibco, Catalogue number 25300-054). Freshly isolated fibroblasts were labelled as Passage 0. Experiments were conducted with cells at passage 2. For all experiments, cells were seeded at 5000 cells/cm^2 in growth media. After 24 hours, the cells were transfected with transfection reagent alone (Dharmafect-I, ThermoScientific), with transfection reagent plus non-targeting microRNAs (negmiR), or with transfection reagent plus our previously reported combination of cardiac reprogramming microRNAs[9] (miR combo, miR-1, miR-133, miR-208, miR-499).
qPCR: Total RNA was extracted using Quick-RNA MiniPrep Kit according to the manufacturer's instructions (Zymo Research). […]

[2] = tested on: neonatal cardiac fibroblasts; assay: Generating beating reprogrammed cardiomyocytes (count of beating colonies)
Method: Isolated mouse (C57BL/6) neonatal cardiac fibroblasts (passage 2) were seeded into 12-well dishes at […] in growth media. Twenty-four hours later growth media was removed and the cells transfected with negmiR or miR combo as described above. One day later, the transfection complexes were removed and media was replaced with a chemically defined reprogramming media[12] that contained 1 ug/ml Poly(I:C) (LMW). For the next four days, cells received fresh chemically defined reprogramming media containing 1 ug/ml Poly(I:C) (LMW) daily. After this period, the cells received chemically defined reprogramming media without Poly(I:C) (LMW) for a further 10 days. Media was replaced every other day. Beating colonies were identified with a Zeiss Axiovert 200 inverted microscope.

[3] = tested on: neonatal cardiac fibroblasts; assay: qPCR of cardiomyocyte sarcomere (maturation) genes in miR combo reprogrammed fibroblasts; settings: for cardiomyocyte maturation (expression of Actn2, Myh6, Tnni3, Cacna1c): miR combo or negmiR transfected, various concentrations of ICR for 4 days, gene expression at day 14
Method: as §1
qPCR: Total RNA was extracted using Quick-RNA MiniPrep Kit according to the manufacturer's instructions (Zymo Research). Total RNA (50 ng-100 ng) was converted to cDNA using a high capacity cDNA reverse transcription kit (Applied Biosystems). cDNA was used in a standard qPCR reaction involving FAM conjugated gene specific primers and TaqMan Gene Expression Master Mix (Applied Biosystems). The following primers were used for qPCR: Gapdh (Mm99999915_m1), Tnni3 (Mm00437164_m1), Actn2 (Mm00473657_m1), Myh6 (Mm00440359_m1), Cacna1c (Mm00437917_m1), Mef2C (Mm01340482_m1), Tbx5 (Mm00803518_m1), Gata4 (Mm00484689_m1) and Hand2 (Mm00439247 m1).

[4] = tested on: neonatal cardiac fibroblasts; assay: Actn2 (α-sarcomeric actinin) immunofluorescence of reprogrammed fibroblasts
Method: as §1
Cells were fixed with 2% v/v paraformaldehyde (EMS) as described previously. Fixed cells were blocked in antibody buffer (5% w/v BSA, 0.1% v/v Tween-20, in PBS) for 1 hr at room temperature. Following blocking, cells were incubated overnight at 4° C. with a-sarcomeric actinin antibody (Sigma, A7811, 1:100) in antibody buffer. After the overnight incubation, cells were washed three times in antibody buffer. Following washing, cells were incubated with Alexa-Fluor conjugated secondary antibodies (Invitrogen, Goat Anti-mouse 594 nm) at a 1:500 dilution in antibody buffer for 1 hr at room temperature. Nuclei were stained by DAPI at 1 μg/ml for 30 minutes at room temperature in antibody buffer. Following washing in PBS to remove unbound complexes, immunofluorescence was measured using a Zeiss Axiovert 200 inverted microscope.

TLR3 = target: T1, TLR3 (Mus musculus, UniProt Q99MB1); assay: IL6 ELISA: TLR3 activity measured as IL6 secretion into the media; settings: CU-CPT-4a added one day post-transfection
T1 construct: neonatal cardiac fibroblasts were transfected with negmiR or miR combo; endogenous in cells; host or cells: mouse (C57BL/6) neonatal cardiac fibroblasts, passage 2
T1 sequence (Q99MB1 26-905): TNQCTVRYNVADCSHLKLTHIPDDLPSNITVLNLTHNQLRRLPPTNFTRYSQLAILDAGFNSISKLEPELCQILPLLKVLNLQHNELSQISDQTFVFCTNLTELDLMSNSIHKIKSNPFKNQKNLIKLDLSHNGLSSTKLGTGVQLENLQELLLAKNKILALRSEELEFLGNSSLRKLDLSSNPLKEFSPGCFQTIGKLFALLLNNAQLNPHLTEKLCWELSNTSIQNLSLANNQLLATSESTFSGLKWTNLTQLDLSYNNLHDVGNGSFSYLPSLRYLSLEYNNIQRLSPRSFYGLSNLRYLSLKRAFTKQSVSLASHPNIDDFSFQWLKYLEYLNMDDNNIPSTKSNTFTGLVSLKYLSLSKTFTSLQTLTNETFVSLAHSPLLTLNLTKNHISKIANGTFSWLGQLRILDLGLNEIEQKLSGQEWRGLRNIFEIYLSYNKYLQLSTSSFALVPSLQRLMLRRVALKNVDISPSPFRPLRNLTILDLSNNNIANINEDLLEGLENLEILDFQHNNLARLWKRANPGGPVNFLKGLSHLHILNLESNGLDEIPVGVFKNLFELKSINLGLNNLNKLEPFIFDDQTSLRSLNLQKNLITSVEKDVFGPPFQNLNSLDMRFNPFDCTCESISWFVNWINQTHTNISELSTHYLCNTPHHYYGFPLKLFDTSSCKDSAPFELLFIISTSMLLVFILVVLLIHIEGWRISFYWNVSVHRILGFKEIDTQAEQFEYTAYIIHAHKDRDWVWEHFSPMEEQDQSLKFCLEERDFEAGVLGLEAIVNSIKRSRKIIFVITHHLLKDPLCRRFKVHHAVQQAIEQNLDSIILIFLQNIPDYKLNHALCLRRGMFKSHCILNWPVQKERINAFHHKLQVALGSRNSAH
Method: IL6 ELISA kits were from R&D Systems. Fresh media (1 ml) was added to the cells one day prior to assaying for IL6. Per manufacturer's instructions 50 ul of media was assayed and the amount of IL6 in pg/ml in the culture media was determined via a standard curve. The IL6 pg/ml value was then adjusted for the total volume of the media (1 ml) and the total cellular protein in each well to correct for differences in cell number.
To test this further we transfected cells with microRNAs and assessed TLR3 activity by measuring IL6 secretion into the media. IL6 secretion is an accepted measurement of the activity of TLRs, including TLR3 [30-37]. […] Targeted knockdown of TLR3 or Ikbkb inhibited miR combo induced IL6 secretion; further validating that miR combo activated the TLR3-NFκB pathway (FIG. 6B).

Compound: Poly(I:C)
expression of cardiomyocyte-commitment factors Gata4, Hand2, Tbx5 and Mef2C [1]: no effect | increase of the ability of miR combo to form spontaneously beating colonies ([2]; addition of Poly(I:C) (LMW) 1 ug/ml, colonies counted 14 days after transfection): 3 fold | time at which mature beating colonies were observed ([2]; miR combo plus Poly(I:C), time after transfection): within one week | effect of miR combo upon Myh6, Actn2 and Tnni3 expression ([3]; Poly(I:C) LMW for 4 days after miR combo transfection, then 10 days growth media): significantly enhanced | expression of Myh6, Actn2 and Tnni3 in the control negmiR samples ([3]; Poly(I:C) LMW for 4 days after negmiR transfection, then 10 days growth media): induced expression | number of Actn2(+) cells that formed in response to miR combo treatment ([4]; Poly(I:C) LMW for 4 days, FIG. 7C): increased | sarcomere maturation ([4]; miR combo plus Poly(I:C), inserts of FIGS. 7Bi-7Bvi): enhanced

effect of negmiR and miR combo upon IL6 secretion (TLR3): completely ablated
Compound: O=C(N[C@H](Cc1ccccc1)C(=O)O)c1sc2cc(F)ccc2c1Cl [CU-CPT-4a]
effect of miR combo upon cardiomyocyte sarcomere gene expression ([3]; CU-CPT-4a 10 μM for 4 days after miR combo transfection, then 6 days growth media): completely abolished | miR combo reprogramming with respect to the expression of Myh6, Actn2, and Tnni3 ([3]; CU-CPT-4a 10 μM for 4 days after transfection, then 10 days growth media, FIGS. 1Bi-1Biii): completely inhibited | ability of miR combo to generate mature cardiomyocytes with organized sarcomeres ([4]; CU-CPT-4a 10 μM, anti-Actn2 staining, FIGS. 1Ci-1Ciii): completely inhibited

Compound: ICR2: 2′F pyrimidine-incorporated 5′ppp RNA, blunt-ended hairpin, SEQ ID NO: 30: ggaug cggua ccuga cagca ucc (GGAUGCGGUACCUGACAGCAUCC; 2'-fluoro at CU, RNA at AG, 5' {ppp}, backbone not given here; blunt-ended hairpin)
cardiomyocyte maturation (expression of Actn2, Myh6, Tnni3, Cacna1c) [3]: induced maturation; also recorded: activated cardiomyocyte maturation

Compound: ICR4: 5′ppp 2′F ssRNA comprising multiple stem-loops, SEQ ID NO: 37: ggaug cggua ccuga cagca uccua aacuc auggu ccaug uuugu ccaug gacca (GGAUGCGGUACCUGACAGCAUCCUAAACUCAUGGUCCAUGUUUGUCCAUGGACCA; 2'-fluoro at CU, RNA at AG, 5' {ppp}, backbone not given here; single strand with multiple stem-loops)
cardiomyocyte maturation (expression of Actn2, Myh6, Tnni3, Cacna1c) [3]: activated cardiomyocyte maturation
